Patent US7982021B2, “Nucleic acid molecules encoding emission ratiometric indicators of phosphoinositides” (The Johns Hopkins University, priority 2006, dated 2011)

Tested on: PIP3 and PI(3,4)P2
Experiment: FRET emission ratio imaging of InPAkt reporters in NIH3T3 cells upon growth factor stimulation
Format: cell-based
Details: for t1/2 of InPAkt response produced by the growth factor / time to reach plateau of InPAkt response produced by the growth factor / InPAkt emission ratio increase produced by the growth factor: NIH3T3 cells expressing InPAkt; for t1/2 of InPAkt response produced by the growth factor / time to reach plateau of InPAkt response produced by the growth factor: single ligand; for InPAkt emission ratio increase produced by the growth factor: single ligand: 50 ng/ml PDGF, 50 nM IGF-1 or 100 ng/ml insulin; for InPAkt emission ratio increase, sequential stimulation: agonists applied sequentially: insulin; for InPAkt emission ratio increase, sequential stimulation / t1/2 of InPAkt response, sequential stimulation / time of InPAkt emission ratio increase, sequential stimulation: then IGF-1, then PDGF; for t1/2 of InPAkt response, sequential stimulation / time of InPAkt emission ratio increase, sequential stimulation: insulin
Procedure: Cell Culture. HEK293 and NIH3T3 cells were plated onto sterilized glass coverslips in 35-mm dishes and grown to 50-90% confluency in DMEM (10% FBS) at 37° C. with 5% CO2. Cells were transfected with FUGENE®-6 (Roche), then serum starved for 24-36 h before imaging. Colocalization studies were performed by incubating transfected cells with Hoechst 33342 cell-permeable dyes (Molecular Probes) for staining nucleic acids.
Imaging. Cells were washed twice with Hanks' balanced salt solution buffer and maintained in the dark at room temperature with the addition of 50 ng/ml rat PDGF (Sigma), 100 ng/ml bovine insulin (Calbiochem), 50 nM IGF-1 (Sigma), or 20 μM LY294002 (Sigma) as described. Cells were imaged on a Zeiss Axiovert 200M microscope with a cooled CCD camera MicroMAX BFT512 (Roper Scientific, Trenton, N.J.) controlled by METAFLUOR 6.2 software (Universal Imaging, Downingtown, Pa.). Dual emission ratio imaging used a 420DF20 excitation filter, a 450DRLP dichroic mirror, and two emission filters (475DF40 for CFP and 535DF25 for YFP) alternated by a filter-changer Lambda 10-2 (Sutter Instruments, Novato, Calif.). Exposure time was 50-500 ms, and images were taken every 15-30 s. Fluorescence images were background-corrected by subtracting autofluorescence intensity of untransfected cells (or background with no cells) from the emission intensities of cells expressing fluorescent reporters. The ratios of yellow-to-cyan emissions were then calculated at different time points.
We next checked the ability of this chimera to detect changes in 3′ PIs in response to agonist stimulation. NIH3T3 cells expressing this construct were serum-starved then stimulated with 50 ng/ml platelet-derived growth factor (PDGF). Stimulation of endogenous PDGF receptor (PDGFR) generated a FRET increase, resulting in an increase in the ratio of yellow-to-cyan emissions (FIGS. 1D, 1E), which was detectable within several seconds and reached a plateau of 25.4±3.7% [average±std] […] The FRET change occurred in the plasma membrane and was accompanied by the translocation of the reporter (FIG. 1D), reiterating that 3′ PIs are mainly produced at the plasma membrane (22). To verify that the FRET response is caused by binding of PIP3 and PI(3,4)P2, we generated a variant of the reporter in which two critical residues in the PH domain, Arg23 and Arg25, which mainly contribute to D-3 phosphate recognition (20), are mutated.

[1] = NIH3T3 cells, PDGF first, followed by IGF-1

IGF-1: insulin-like growth factor 1 (Sigma)
t1/2 of InPAkt response produced by the growth factor: 5.4 ± 0.4 min
time to reach plateau of InPAkt response produced by the growth factor: 10 to 12 min
InPAkt emission ratio increase produced by the growth factor: 6.5±0.8%
InPAkt emission ratio response, reversed order of ligand addition [1]: not enhanced
InPAkt emission ratio increase, sequential stimulation (NIH3T3 cells): 6.8±0.9%
t1/2 of InPAkt response, sequential stimulation (NIH3T3 cells): 5.2 ± 0.1 min
time of InPAkt emission ratio increase, sequential stimulation (NIH3T3 cells): 10 to 12 min

insulin: bovine insulin (Calbiochem)
InPAkt emission ratio increase produced by the growth factor: did not generate any discernable response
InPAkt emission ratio increase, sequential stimulation (NIH3T3 cells): did not generate any appreciable change

PDGF
t1/2 of InPAkt response produced by the growth factor: 3.45 ± 0.65 min
time to reach plateau of InPAkt response produced by the growth factor: 5 to 9 min
InPAkt emission ratio increase produced by the growth factor: 25.4±3.7%
InPAkt emission ratio response, reversed order of ligand addition [1]: 24.2 ± 1.5%
t1/2 of InPAkt response, reversed order of ligand addition [1]: 3.9 ± 0.2 min
time of InPAkt response, reversed order of ligand addition [1]: 7 to 9 min
InPAkt emission ratio increase, sequential stimulation (NIH3T3 cells): 14.6±1.4%
t1/2 of InPAkt response, sequential stimulation (NIH3T3 cells): 3.2 ± 0.2 min
time of InPAkt emission ratio increase, sequential stimulation (NIH3T3 cells): 6 to 7 min
